Here are results for one compound from patent US8889398B2, “Composition for inactivating an enveloped virus” (Viroblock SA, priority 2006, dated 2014).

Entries after “also recorded” stand apart in the source; their conditions may differ.

One data set concerns cellular integrity. Particulars: 50-100 mM, range of concentrations used in most in vitro experiments; cited from earlier work.
In data set [1] the test system is rSeV-Luc (recombinant Sendai virus). Kind of data set: Inactivation assay with or without cyclodextrin, rSeV-Luc, luciferase activity in MK2 cells. Type of data set: cell-based. The protocol:
MK2 (monkey) cells were grown at 37° C. in DMEM containing 5% of bovine serum albumin (BSA) until they reached 70% of confluence.
A recombinant Sendai virus was used, rSeV-Luc, which encodes the Photinus pyralis luciferase gene.
The nPLV preparations were diluted in PBS to the indicated concentrations. The diluted nPLVs were then mixed with the viruses, either alone (no cyclodextrin) or in combination with 0.5 mM (final concentration) of cyclodextrin, in a volume of 100 μl. The virus-nPLV mixtures were incubated at room temperature for 20 minutes with shaking. About 10^5 viral particles were used.
Following incubation, the mixtures were diluted to […] in DMEM without BSA and directly added onto cells. Infections were performed at 33° C. for one hour, and then infectious mixes were removed. Cells were washed once with DMEM without BSA, 10 ml of DMEM with 1% BSA were added and incubation was further performed at 37° C. for 36 hours. Experiment was done in duplicates.
MK2 cells were lysed and luciferase activity was determined using the Promega's Luciferase Assay System. Measurements were done with TD-20/20 luminometer (Turner Designs).

`OC[C@H]1O[C@@H]2O[C@H]3[C@H](O)[C@@H](O)[C@@H](O[C@H]4[C@H](O)[C@@H](O)[C@@H](O[C@H]5[C@H](O)[C@@H](O)[C@@H](O[C@H]6[C@H](O)[C@@H](O)[C@@H](O[C@H]7[C@H](O)[C@@H](O)[C@@H](O[C@H]8[C@H](O)[C@@H](O)[C@@H](O[C@H]1[C@H](O)[C@H]2O)O[C@@H]8CO)O[C@@H]7CO)O[C@@H]6CO)O[C@@H]5CO)O[C@@H]4CO)O[C@@H]3CO` [β-cyclodextrin]: in the data set on cellular integrity, the “effect on cellular integrity” value is “detrimental for cellular integrity and can induce cell death”. In data set [1] (0.5 mM β-cyclodextrin with nPLVs composed of PCE with 0.1% mol of oleic acid (OA), nPLVs 0.02%, 0.05% and 0.1%, FIG. 2A), the “effect of β-cyclodextrin on the viral inactivation by nPLVs” value is listed as “greatly enhances the viral inactivation; also recorded: strong synergistic effect”. The “concentration at which a direct effect of β-cyclodextrin alone on the viral particles is observed” value in data set [1] (in absence of nPLVs, FIG. 2B) is listed as “higher than 5 mM”.
